Data reported in US20250186454A1, “METHODS FOR TREATING ABERRANT BEHAVIOR AND MOTOR ACTIVITY” (LAPKO INC, dba AFECTA PHARMACEUTICALS, priority 2023, published 2025).

What was measured:
patients with ASD = assay: open-label observational trial, eight weeks, response scored using the ABC-C scale; assay type: in vivo, human
Experimental: In an open-label observational trial by an investigator, 11 patients with ASD were treated for eight weeks with molindone starting at 5 mg/day and the dosage increased by the patient and caregiver in 5 mg increments as tolerated by the subjects up to a maximum dose of 25 mg/day or until amelioration of the aberrant behaviors was seen. Patient response was scored using the ABC-C scale.

[1] = pharmacokinetic study of equivalent doses by gastric absorption compared to sublingual absorption; assay type: in vivo
Experimental: A study of equivalent doses of molindone administered by gastric absorption compared to sublingual absorption. […] Molindone is primarily, if not exclusively, metabolized by the liver (hepatic metabolism). The first metabolite of molindone obtained by liver metabolism is 3-ethyl-2-(hydroxymethyl)-5-[(morpholin-4-yl)methyl]-1,5,6,7tetrahydro-4H-indol-4-one. The level of this metabolite was also measured at the Cmax of the sublingual and gastric dosing regimens.

[2] = N=11, Week 8 vs baseline, p <0.0001

somnolence during the course of the study (patients with ASD; ASD patients, eight weeks): none complained of increased somnolence | T1/2 ([1]; non-gastric dosing regimen compared to gastric dosing): longer | area under the curve (AUC) ([1]; sublingual dosing compared to gastric dosing): better | Cmax (highest plasma concentration of the drug) ([1]; sublingual dosing compared to gastric dosing, equivalent doses, FIG. 1): higher
SMILES: CCc1c(C)[nH]c2c1C(=O)C(CN1CCOCC1)CC2 (stereo not drawn) [molindone, 3-ethyl-2-methyl-5-(morpholin-4-ylmethyl)-1,5,6,7-tetrahydroindol-4-one]
body weight during the course of therapy (subjective responses from caregivers and subjects) (patients with ASD; ASD patients, eight weeks): noticeable and desirable weight loss | ABC-C Total Score (0-174), Decrease from baseline (%) (patients with ASD; N=11, Week 8 vs baseline, p 0.0001): 69.9% | ABC-C Inappropriate speech (0-12), Decrease from baseline (%) (patients with ASD; N=11, Week 8 vs baseline, p 0.0048): 77% | ABC-C Lethargic/Withdrawn (0-48), Decrease from baseline (%) (patients with ASD; N=11, Week 8 vs baseline, p 0.0069): 63.2% | ABC-C Stereotypy (0-21), Decrease from baseline (%) (patients with ASD; N=11, Week 8 vs baseline, p 0.0081): 72.8% | ABC-C Hyperactivity/Noncompliance (0-48), Decrease from baseline (%) (patients with ASD; [2]): 62.4% | ABC-C Irratability (0-45), Decrease from baseline (%) (patients with ASD; [2]): 76.6% | ABC-C Scale Mean Score, Inappropriate speech (0-12), Week 8 (patients with ASD; N=11 ASD patients, 5 up to 25 mg/day, baseline 9.6, p 0.0048): 2.2 | ABC-C Scale Mean Score, Stereotypy (0-21), Week 8 (patients with ASD; N=11 ASD patients, 5 up to 25 mg/day, baseline 11.8, p 0.0081): 3.2 | ABC-C Scale Mean Score, Lethargic/Withdrawn (0-48), Week 8 (patients with ASD; N=11 ASD patients, 5 up to 25 mg/day, baseline 16.5, p 0.0069): 6.4 | ABC-C Scale Mean Score, Hyperactivity/Noncompliance (0-48), Week 8 (patients with ASD; N=11 ASD patients, 5 up to 25 mg/day, baseline 29.8, p <0.0001): 11.2 | ABC-C Scale Mean Score, Irratability (0-45), Week 8 (patients with ASD; N=11 ASD patients, 5 up to 25 mg/day, baseline 35.6, p <0.0001): 8.3 | ABC-C Scale Mean Score, Total Score (0-174), Week 8 (patients with ASD; N=11 ASD patients, 5 up to 25 mg/day, baseline 103.3, p 0.0001): 31.3 | reduction of symptoms in all five ABC-C categories, including stereotypy (patients with ASD; during the eight-week study, all p values less than 0.05): significant improvement
